Data: US6949558B2, “Enhancement of taxane-based chemotherapy by a CDK1 antagonist” (Yale University, priority 2001, dated 2005)
Several values for one entry are separate records, joined by “and”; a condition that tells them apart may be missing. Equal values may be shown once.

Experiments:
[1] = test system: MCF-7 cells; assay: Apoptosis by DNA content analysis and flow cytometry in MCF-7 cells; assay type: cell-based, human
Procedure: Cervical carcinoma HeLa (functionally inactivated p53) cells or breast carcinoma MCF-7 (wild type p53) cells were plated at 50-60% confluency in C-6 wells. […]
(§1) After 4, 8, 16, and 32 hours of incubation, without removing taxol from the wells, purvalanol A was added at three increasing concentrations, 1, 10 and 20 uM (FIG. 1). A control was performed with addition of purvalanol A at the 0-h time point.
(§2) The cell populations were harvested at increasing time intervals from the 0-h time point or corresponding to the addition of purvalanol A. Apoptosis was analyzed by DNA content analysis and flow cytometry (DAPI staining).

[2] = test system: caspase-9; assay: Caspase-9 processing by Western blotting in HeLa cells; details: taxol 0.2 μM, Purvalanol A 20 μM or sequential combination, 16 h
[3] = test system: HeLa cells; assay: Apoptosis by DNA content analysis and flow cytometry in HeLa cells; assay type: cell-based, human
[4] = test system: survivin expression in PC3 cells; assay: Survivin expression by Western blotting in PC3 cells; assay type: cell-based; details: taxol then Purvalanol A
[5] = test system: p34^cdc2 kinase activity (MPM-2 epitope) in HeLa cells; assay: MPM-2 mitotic phosphoepitope expression (p34^cdc2 kinase activity) in HeLa cells; assay type: cell-based, human
[6] = test system: survivin expression in HeLa cells; assay: Survivin expression by Western blotting in HeLa cells; assay type: cell-based, human
Procedure: (§3) Cell Cultures, Proteins and Antibodies: Breast carcinoma MCF-7 and cervical carcinoma HeLa cells (American Type Culture Collection, Manassas, Va.) were maintained in culture according to the manufacturer's specifications. For treatment with genotoxic agents, HeLa or MCF-7 cells were incubated with vehicle (DMSO) or taxol (2 μM, Sigma Chemical Co., St. Louis, Mo.), adriamycin (100 nM, Sigma), cis-platin (3 μM, Sigma) or subjected to ultraviolet B (UVB) irradiation at 50 or 300 J/m^2. In some experiments, HeLa or MCF-7 treated with taxol, adriamycin or UVB as described above were incubated with inhibitors of transcription (actinomycin D, 1 μg/ml) or translation (cycloheximide, 2 mg/ml) before determination of protein expression by Western blotting. […] A replication-deficient adenovirus encoding wild type survivin (pAd-Survivin) or control encoding Green Fluorescence Protein (pAd-GFP) was generated using the pAd-Easy system as described previously (M. Mesri et al. (2001) J. Clin. Invest. 108: 981-90), and propagated in HEK293 cells with purification by CsCl banding. […] Antibodies to p34^cdc2 or bcl-2 were obtained from Pharmingen (San Diego, Calif.) and R&D, respectively. An antibody to β-actin was from Sigma and antibodies to MPM-2 mitotic phosphoproteins was from Upstate Biotechnology (Lake Placid, N.Y.).
(§4) In some experiments, total RNA was extracted from MCF-7 cells at various time intervals after adriamycin treatment, and hybridized with 32 P-labeled survivin cDNA as described previously. Radioactive bands were detected by autoradiography. […] In other experiments, samples were transferred to nylon membranes and analyzed by Western blotting with antibodies to p34^cdc2 (1 μg/ml), survivin (2 μg/ml), or survivinT34* (5 μg/ml).
In other experiments, HeLa cells were treated with taxol (0.2 μM) for 16 h followed by the DNA damaging agent adriamycin (100 nM, Sigma) or the nucleoside analog 5-Fluorouracil (500 μM, Sigma) for 8-32 h at 37° C. […] In some experiments, HeLa cells were transfected by lipofectamine with a minimal survivin promoter construct upstream of a luciferase reporter gene (pLuc-cyc1.2), as described (F. Li et al. (1998) Nature 396: 580-584). Cells were treated with taxol (2 μM) or UVB (50 J/m2), and analyzed for changes in luciferase activity at increasing time intervals (12-36 h) in a luminometer. Luciferase values were normalized to β-galactosidase expression. […] The immune complexes were separated by SDS gel electrophoresis and analyzed with antibodies to survivin or a-survivinT34* by Western blotting.

[7] = test system: MCF-7 tumors; assay: Breast cancer xenograft model (Example 8); assay type: in vivo, CB17 SCID/beige mice; details: taxol alone 2.5 or 5 mg/kg, Purvalanol A alone 20 mg/kg, i.p.
Procedure: Breast Cancer Xenograft Model: All experiments involving animals were approved by the institutional animal cure and use committee. Six- to eight-week old female CB17 SCID/beige mice (Taconic Farms, Germantown, N.Y.) were injected s.c. into the flanks with 2.5×10^6 exponentially growing MCF-7 cells in 250 μl of sterile PBS, pH 7.4. […] Animals were injected i.p. with taxol alone (2.5 or 5 mg/kg), Purvalanol A alone (20 mg/kg) or the sequential combination of taxol-Purvalanol A for two consecutive days each divided by a day with no treatment. For single agent treatment, vehicle was given in place of taxol or Purvalanol A with the same schedule. Each complete cycle was separated by 2 d without treatment. Tumor volume was measured in the three dimensions with a caliper. Animals with tumor burden >3000 mm^3 were sacrificed (Survival).
Statistical Analysis: All in vitro experiments were repeated at least three times. […] The survival curves were compared using the log-rank test. This test generates a P value testing the null hypothesis that the survival curves are identical in the overall populations.

[8] = test system: HeLa cells; assay: Apoptosis by DNA content analysis and flow cytometry in HeLa cells; assay type: cell-based, human; remark: listed apart in the source
Procedure: Cervical carcinoma HeLa (functionally inactivated p53) cells or breast carcinoma MCF-7 (wild type p53) cells were plated at 50-60% confluency in C-6 wells. Cells were treated with taxol at 0.2 μM for 0 to 32 hours in complete media.
as §1, §2

[9] = test system: survivin phosphorylation on Thr^34 in HeLa cells; assay: Survivin phosphorylation on Thr^34 in HeLa cells (immunoprecipitation, Western blotting); assay type: cell-based, human; details: taxol 0.2 μM 16 h then Purvalanol A 20 μM 16 h
Procedure: A. In vitro kinase assay. […] Radioactive bands were detected by autoradiography. […] The immune complexesb were analyzed by Western blotting (WB) with an antibody to Thr^34-phosphorylated survivin (a-survivinT34*, top panel) or with an antibody to survivin (a-survivin, lower panel) followed by chemiluminescence. For all panels, relative molecular weight markers in kDa are shown on the left.
as §4
Luciferase values were normalized to β-galactosidase expression.

[10] = test system: survivin mRNA in MCF-7 cells; assay: Northern hybridization of survivin mRNA in MCF-7 cells; assay type: cell-based, human; details: adriamycin-treated MCF-7 cells
Procedure: as §4

[11] = test system: p34^cdc2 kinase activity (MPM-2 epitope) in MCF-7 cells; assay: MPM-2 mitotic phosphoepitope expression (p34^cdc2 kinase activity) in MCF-7 cells; assay type: cell-based, human; details: adriamycin-induced G2/M arrest
Procedure: MPM-2 Mitotic Phosphoepitope Expression: For detection of mitotic phosphoproteins (D. D. Vandre et al. (1989) J. Cell Sci. 94: 245-58), MCF-7 cells (1-2×10^5 cells/60 mm dish) were treated with taxol (2 μM), adriamycin (100 nM), 50 or 300 J/m^2 UVB irradiation and cultured for 0, 8, 16, 24 or 36 h at 37° C. Cells were fixed in 70% ethanol, labeled with MPM-2 antibody (6 μg/ml) followed by addition of goat anti-mouse FITC (Boehringer Mannheim) for 1 h at 22° C. in the presence of 5 μg/ml propidium iodide (PI) containing 50 μg/ml RNase A. Samples were analyzed on a FACScan (Becton Dickinson, Mountain View, Calif.), using CellQuest software.
MPM-2 Mitotic Phosphoepitope Expression: For detection of mitotic phosphoproteins (D. D. Vandre et al. (1989) J. Cell Sci. 94: 245-258), MCF-7 cells (1-2×10^5 cells/60 mm dish) were treated with taxol (0.2 μM), or vincristine (100 nM) for increasing time intervals (8-36 h) at 37° C. Cells were fixed in 70% ethanol, labeled with MPM-2 antibody (6 μg/ml; Upstate Biotechnology, Lake Placid, N.Y.) followed by addition of goat anti-mouse FITC (Boehringer Mannheim) for 1 h at 22° C. in the presence of 5 μg/ml propidium iodide containing 50 μg/ml RNAse A. Samples were analyzed on a FACScan (Becton Dickinson, Mountain View, Calif.), using CellQuest software. Data are expressed as %MPM-2 positive cells in the entire population.

[12] = test system: MCF-7 xenografts; assay type: in vivo; details: adriamycin 2 mg/kg or flavopiridol 15 mg/kg alone, i.p.
Source text: Each complete cycle was separated by 2 d without treatment.
This test generates a P value testing the null hypothesis that the survival curves are identical in the overall populations.

[13] = test system: survivin expression in MCF-7 cells; assay: Survivin expression by Western blotting in MCF-7 cells; assay type: cell-based, human; details: 100 nM adriamycin
Procedure: as §3, §4

[14] = taxol 2 μM, adriamycin 100 nM, cis-platin 3 μM (Example 7)

With CC(C)[C@H](CO)Nc1nc(Nc2cccc(Cl)c2)c2ncn(C(C)C)c2n1 [Purvalanol A] the “efficacy of taxol followed by purvalanol A compared with HeLa cells” value ([1]; taxol 0.2 μM then purvalanol A) was “nearly identical”, the “synergy with vincristine treatment” value ([1]; vincristine 10 nM and 100 nM then purvalanol A 10 uM) was “did not synergize with vincristine treatment” and the caspase-9 processing [2] was “did not result in significant caspase-9 cleavage”. For the same molecule, the “vincristine-induced apoptosis in the presence or the absence of Purvalanol A” value ([3]; after 96 h) was “indistinguishable”, the “apoptosis, purvalanol A alone or reversed schedule” value ([3]; purvalanol A 1, 10, 20 uM alone or followed by 0.2 uM taxol) was “no apoptosis at all” and the apoptosis ([3]; taxol 0.2 μM then 20 uM purvalanol A, 16 h after purvalanol A addition) was about 90%. For the same molecule, the “effect of sequential addition to taxol-treated cells” value ([3]; taxol 0.2 μM then Purvalanol A) was “escape from the mitotic block, and massive apoptosis”, the apoptosis ([3]; vincristine then Purvalanol A, throughout a 32-h culture) was “did not result in induction of apoptosis” and the “effect on taxol-induced increase of survivin expression” value [4] was “reversed”. For the same molecule, the “inhibition of kinase activity (MPM-2 epitope)” value ([5]; 16 h after addition of purvalanol A in taxol-treated cells, cell line not stated) was 70-80%, the “MPM-2 mitotic phosphoepitope expression” value ([5]; HeLa, taxol 0.2 μM 16 h then Cdk inhibitor for 16 h (Purvalanol A 10 μM, alsterpaullone 20 μM, flavopiridol 250 nM, olomoucine 400 μM)) was “completely suppressed MPM-2 mitotic phosphoepitope expression” and the “MPM-2 mitotic phosphoepitope expression” value ([5]; HeLa, taxol 0.2 μM 16 h then Cdk inhibitor for 32 h) was “completely suppressed MPM-2 mitotic phosphoepitope expression”. The “p34^cdc2 kinase activity” value ([5]; HeLa, vincristine 100 nM then Purvalanol A 20 μM, earliest time point tested of 8 h) was “suppressed p34^cdc2 kinase activity”, the survivin levels ([6]; Purvalanol A alone or Purvalanol A followed by taxol) was “did not affect survivin levels” and the survivin expression ([6]; taxol 0.2 μM 16 h then Purvalanol A 20 μM 16 h) was “inhibition of increased survivin expression after taxol treatment”. The survivin expression ([6]; vincristine then Purvalanol A) was “reversed the increase in survivin expression”, the “kinetics of tumor growth” value [7] was “did not affect the kinetics of tumor growth” and the “cell population with hypodiploid (apoptotic) DNA content / cell death” value ([8]; HeLa, 16 h, taxol 0.2 μM, Purvalanol A 20 μM, alone or sequential) was 6%. The cell cycle arrest ([8]; HeLa, taxol 0.2 μM or purvalanol A 1-20 uM alone (Examples 1, 2)) was “strong M arrest”, the apoptosis ([8]; HeLa, taxol 0.2 μM then 20 uM purvalanol A, 8 h after purvalanol A addition) was 40% and the “effect of purvalanol A on taxol-treated cells, concentration dependence” value ([8]; purvalanol A 1, 10 and 20 uM added after taxol 0.2 μM) was “dose dependent”. The “phosphorylation of endogenous survivin on Thr^34” value [9] was “suppressed phosphorylation of endogenous survivin on Thr^34”.

With COc1cccc2c1C(=O)c1c(O)c3c(c(O)c1C2=O)C[C@@](O)(C(=O)CO)C[C@@H]3O[C@H]1C[C@H](N)[C@H](O)[C@H](C)O1 [adriamycin, doxorubicin] the apoptosis ([1]; adriamycin 100 nM alone, three values given, their conditions not stated) was 2% and 3% and 10%, the apoptosis [1, 14] was “negligible apoptosis” and the cell cycle arrest [1, 14] was “G2/M arrest”. The “enhancement of taxol-induced cell death” value ([1]; taxol then adriamycin 100 nM and 200 nM in place of purvalanol A) was “did not enhance taxol-induced cell death”, the “survivin mRNA” value [10] was “no detectable increase in survivin mRNA” and the “residual cell population exhibiting MPM-2 expression” value [11] was 20-25%. The “kinetics of tumor growth vs vehicle” value [12] was “did not affect the kinetics of tumor growth”, the “enhancement of apoptosis vs single agent treatment” value ([3]; taxol 0.2 μM 16 h then adriamycin 100 nM or 5-Fluorouracil 500 μM) was “did not result in enhanced apoptosis” and the survivin expression [13] was “increased survivin expression”.
